Measurements from ChEMBL document CHEMBL5385926, “Production of Kinanthraquinone D with Antimalarial Activity by Heterologous Gene Expression and Biotransformation in Streptomyces lividans TK23” (J Nat Prod, 2024).
Values joined by “and” are separate entries in the source; they are usually repeats but may differ in a detail not shown here. Equal values may be shown once.

Columns and labels:
[1] = Cytotoxicity against human HL-60 cells; type: toxicity, cell-based
[2] = Cytotoxicity against human HeLa cells; type: toxicity, cell-based
Staphylococcus aureus = test: Antimicrobial activity against Staphylococcus aureus 209; type: functional, organism-based
Plasmodium falciparum = test: Antimalarial activity against Plasmodium falciparum 3D7; type: functional, organism-based

IC50 (Staphylococcus aureus)	IC50 (Plasmodium falciparum)	SMILES	IC50 [1]	IC50 [2]
> 30 µM and > 11.4 µg/mL	1.21 µM and 0.5 µg/mL	COc1ccc2c(c1OC)C(=O)c1ccc(/C=C(/C)CC(N)=O)c(O)c1C2=O	> 30 µM and > 11.4 µg/mL	> 30 µM and > 11.4 µg/mL
> 30 µM and > 11.9 µg/mL	910 nM and 0.4 µg/mL	COc1ccc2c(c1OC)C(=O)c1c(O)cc(/C=C(/C)CC(N)=O)c(O)c1C2=O	> 30 µM and > 11.9 µg/mL	> 30 µM and > 11.9 µg/mL
> 30 µM and > 13.2 µg/mL	> 30 µM and > 13.2 µg/mL	COc1ccc2c(c1OC)C(=O)c1ccc(/C=C(/C)CC(=O)NCC(=O)O)c(O)c1C2=O	> 30 µM and > 13.2 µg/mL	> 30 µM and > 13.2 µg/mL
18 µM and 6.9 µg/mL	15 µM and 5.7 µg/mL	COc1ccc2c(c1OC)C(=O)c1ccc(/C=C(/C)CC(=O)O)c(O)c1C2=O	> 30 µM and > 11.5 µg/mL	> 30 µM and > 11.5 µg/mL
